Data: ChEMBL document CHEMBL1132537, “A series of 6- and 7-piperazinyl- and -piperidinylmethylbenzoxazinones with dopamine D4 antagonist activity: discovery of a potential atypical antipsychotic agent” (J Med Chem, 1999)

How the values were obtained:
D(4) dopamine receptor = target: T1, D(4) dopamine receptor (Homo sapiens, UniProt P21917); experiment: biochemical
T1 sequence (P21917 whole entry): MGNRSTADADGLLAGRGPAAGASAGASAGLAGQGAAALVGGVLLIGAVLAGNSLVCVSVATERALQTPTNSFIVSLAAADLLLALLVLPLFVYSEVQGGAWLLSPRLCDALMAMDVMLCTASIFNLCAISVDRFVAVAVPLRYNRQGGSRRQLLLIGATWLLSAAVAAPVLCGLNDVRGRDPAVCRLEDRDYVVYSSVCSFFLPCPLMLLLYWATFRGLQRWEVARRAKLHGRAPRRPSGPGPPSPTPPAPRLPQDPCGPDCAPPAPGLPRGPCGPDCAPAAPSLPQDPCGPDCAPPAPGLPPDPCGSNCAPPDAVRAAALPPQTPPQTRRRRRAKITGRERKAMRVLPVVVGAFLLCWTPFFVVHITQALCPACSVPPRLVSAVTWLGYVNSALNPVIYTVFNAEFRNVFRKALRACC
Description: Binding affinity at Dopamine receptor D4 in CHO cells by radioligand displacement.

D(3) dopamine receptor = D(3) dopamine receptor (Homo sapiens, UniProt P35462); experiment: biochemical
Description: Binding affinity at Dopamine receptor D3 in CHO cells by radioligand displacement.

Rattus norvegicus [1] = experiment: Effect on Dopamine synthesis in rat Hippocampus(HI), measured as accumulation of DOPA(L-3,4-dihydroxyphenylalanine) at a peroral dose of 30 mg/kg; type: functional; conditions: route oral
Rattus norvegicus [2] = experiment: Effect on Dopamine synthesis in rat Striatum(ST), measured as accumulation of DOPA(L-3,4-dihydroxyphenylalanine) at a peroral dose of 30 mg/kg; type: functional; conditions: route oral
Rattus norvegicus [3] = experiment: Effect on Dopamine synthesis in rat Striatum(ST), measured as accumulation of DOPA(L-3,4-dihydroxyphenylalanine) at a peroral dose of 10 mg/kg; type: functional; conditions: route oral
Rattus norvegicus [4] = experiment: Effect on Dopamine synthesis in rat Hippocampus(HI), measured as accumulation of DOPA(L-3,4-dihydroxyphenylalanine) at a peroral dose of 10 mg/kg; type: functional; conditions: route oral
D(2) dopamine receptor = D(2) dopamine receptor (Homo sapiens, UniProt P14416); experiment: Binding affinity at Dopamine receptor D2 in CHO cells by radioligand displacement.; type: cell-based
[5] = target: T2, Alpha-1A adrenergic receptor (Rattus norvegicus, UniProt P43140); experiment: Inhibition of [3H]- prazosin binding against Alpha-1A adrenergic receptor from rat submaxillary gland
T2 sequence (P43140 whole entry): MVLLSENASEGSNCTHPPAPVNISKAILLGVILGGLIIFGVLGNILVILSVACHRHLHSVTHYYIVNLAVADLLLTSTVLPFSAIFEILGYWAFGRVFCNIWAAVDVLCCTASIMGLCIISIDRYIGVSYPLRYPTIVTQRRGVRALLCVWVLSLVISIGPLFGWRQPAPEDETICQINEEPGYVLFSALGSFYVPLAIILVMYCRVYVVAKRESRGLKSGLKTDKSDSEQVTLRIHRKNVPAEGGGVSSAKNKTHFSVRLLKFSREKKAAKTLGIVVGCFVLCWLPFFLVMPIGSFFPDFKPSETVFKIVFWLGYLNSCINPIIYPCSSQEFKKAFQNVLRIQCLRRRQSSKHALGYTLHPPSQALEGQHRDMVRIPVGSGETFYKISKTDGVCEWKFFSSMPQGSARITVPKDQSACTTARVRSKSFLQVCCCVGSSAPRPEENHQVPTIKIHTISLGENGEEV

[6] = target: T3, Alpha-2A adrenergic receptor (Homo sapiens, UniProt P08913); experiment: Inhibition of [3H]- MK-912 binding against human recombinant Alpha-2A adrenergic receptor
T3 sequence (P08913 whole entry): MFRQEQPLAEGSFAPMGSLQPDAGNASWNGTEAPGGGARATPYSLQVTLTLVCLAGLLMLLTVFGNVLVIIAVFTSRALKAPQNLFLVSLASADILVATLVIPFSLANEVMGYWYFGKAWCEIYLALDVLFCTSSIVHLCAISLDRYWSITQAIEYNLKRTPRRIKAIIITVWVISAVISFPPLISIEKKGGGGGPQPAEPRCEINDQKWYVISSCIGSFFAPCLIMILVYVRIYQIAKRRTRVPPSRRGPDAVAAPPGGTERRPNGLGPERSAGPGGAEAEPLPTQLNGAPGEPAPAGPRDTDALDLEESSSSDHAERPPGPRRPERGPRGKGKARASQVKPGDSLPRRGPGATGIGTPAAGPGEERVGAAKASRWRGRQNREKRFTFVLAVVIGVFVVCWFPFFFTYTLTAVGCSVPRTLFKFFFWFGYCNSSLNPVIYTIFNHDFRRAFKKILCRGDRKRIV

[7] = target: Sigma intracellular receptor 2 (Rattus norvegicus, UniProt Q5U3Y7); experiment: Inhibition of [3H]- Ifenprodil binding against rat brain Sigma opioid receptor type 2
[8] = target: T4, Alpha-1B adrenergic receptor (Rattus norvegicus, UniProt P15823); experiment: Inhibition of [3H]- prazosin binding against Alpha-1B adrenergic receptor from rat liver
T4 sequence (P15823 whole entry): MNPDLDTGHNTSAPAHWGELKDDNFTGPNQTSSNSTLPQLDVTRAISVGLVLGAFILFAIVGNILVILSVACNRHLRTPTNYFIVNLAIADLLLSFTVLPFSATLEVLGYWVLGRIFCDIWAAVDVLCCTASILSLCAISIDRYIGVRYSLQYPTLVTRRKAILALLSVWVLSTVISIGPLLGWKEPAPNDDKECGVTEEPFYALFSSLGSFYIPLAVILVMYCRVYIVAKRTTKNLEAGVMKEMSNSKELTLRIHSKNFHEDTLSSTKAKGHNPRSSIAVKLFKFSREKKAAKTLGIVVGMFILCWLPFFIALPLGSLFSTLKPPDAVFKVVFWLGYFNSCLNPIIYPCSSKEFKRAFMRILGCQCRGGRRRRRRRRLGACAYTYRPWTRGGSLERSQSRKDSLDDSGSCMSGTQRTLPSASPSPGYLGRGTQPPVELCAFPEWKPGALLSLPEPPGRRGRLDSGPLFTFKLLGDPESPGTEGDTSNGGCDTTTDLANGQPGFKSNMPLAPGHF

[9] = target: Serotonin 2 (5-HT2) receptor (Rattus norvegicus, UniProt P30994+P08909+P14842); experiment: Inhibition of [3H]- Ketanserin binding against rat brain 5-hydroxytryptamine 2 receptor
[10] = target: T5, Alpha-2B adrenergic receptor (Rattus norvegicus, UniProt P19328); experiment: Inhibition of [3H]- Yohimbine binding against rat kidney cortex Alpha-2B adrenergic receptor
T5 sequence (P19328 whole entry): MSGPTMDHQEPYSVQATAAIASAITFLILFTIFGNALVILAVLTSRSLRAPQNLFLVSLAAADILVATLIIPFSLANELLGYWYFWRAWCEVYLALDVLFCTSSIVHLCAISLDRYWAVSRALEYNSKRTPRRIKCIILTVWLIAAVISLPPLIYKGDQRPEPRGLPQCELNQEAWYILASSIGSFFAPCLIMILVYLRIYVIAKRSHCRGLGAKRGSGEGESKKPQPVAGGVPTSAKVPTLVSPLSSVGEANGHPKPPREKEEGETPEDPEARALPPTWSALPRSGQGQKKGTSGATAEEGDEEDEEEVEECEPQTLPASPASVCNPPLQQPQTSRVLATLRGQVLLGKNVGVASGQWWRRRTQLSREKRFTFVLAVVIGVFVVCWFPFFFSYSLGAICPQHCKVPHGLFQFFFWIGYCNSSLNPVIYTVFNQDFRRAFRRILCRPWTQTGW

[11] = target: T6, 5-hydroxytryptamine receptor 1A (Homo sapiens, UniProt P08908); experiment: Inhibition of [3H]- […] binding against human recombinant 5-hydroxytryptamine 1A receptor
T6 sequence (P08908 whole entry): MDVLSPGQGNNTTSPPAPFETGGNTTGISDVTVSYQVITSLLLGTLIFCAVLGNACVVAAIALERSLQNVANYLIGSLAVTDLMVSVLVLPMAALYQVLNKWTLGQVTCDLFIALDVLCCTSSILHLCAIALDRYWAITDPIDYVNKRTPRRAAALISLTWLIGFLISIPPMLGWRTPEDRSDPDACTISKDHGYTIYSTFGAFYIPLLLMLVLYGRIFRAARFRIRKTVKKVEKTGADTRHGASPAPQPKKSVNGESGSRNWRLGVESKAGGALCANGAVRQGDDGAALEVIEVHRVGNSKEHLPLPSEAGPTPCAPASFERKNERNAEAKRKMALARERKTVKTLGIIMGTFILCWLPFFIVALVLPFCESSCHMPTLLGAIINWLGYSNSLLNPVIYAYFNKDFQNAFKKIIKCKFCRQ

[12] = target: T7, Muscarinic acetylcholine receptor M5 (Homo sapiens, UniProt P08912); experiment: Inhibition of [3H]- NMS binding against human recombinant Muscarinic acetylcholine receptor M5
T7 sequence (P08912 whole entry): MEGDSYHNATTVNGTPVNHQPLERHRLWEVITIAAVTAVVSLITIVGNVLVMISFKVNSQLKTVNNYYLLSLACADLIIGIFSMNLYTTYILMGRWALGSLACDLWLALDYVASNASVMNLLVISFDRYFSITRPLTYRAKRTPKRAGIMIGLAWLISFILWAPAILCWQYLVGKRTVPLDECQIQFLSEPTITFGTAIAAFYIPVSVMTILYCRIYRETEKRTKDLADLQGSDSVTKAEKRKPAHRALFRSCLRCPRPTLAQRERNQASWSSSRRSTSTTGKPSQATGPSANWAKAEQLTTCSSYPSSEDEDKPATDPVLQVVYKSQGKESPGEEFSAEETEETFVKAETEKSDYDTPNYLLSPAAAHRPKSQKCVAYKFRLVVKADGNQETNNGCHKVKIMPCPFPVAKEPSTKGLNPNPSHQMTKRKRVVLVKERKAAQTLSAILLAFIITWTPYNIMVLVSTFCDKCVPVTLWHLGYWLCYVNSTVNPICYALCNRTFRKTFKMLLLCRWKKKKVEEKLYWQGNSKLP

Rattus norvegicus [13] = experiment: Effect on Dopamine synthesis in rat Hippocampus(HI), measured as accumulation of DOPA(L-3,4-dihydroxyphenylalanine) at a peroral dose of 20 mg/kg; type: functional; conditions: route oral
Rattus norvegicus [14] = experiment: Effect on Dopamine synthesis in rat Striatum(ST), measured as accumulation of DOPA(L-3,4-dihydroxyphenylalanine) at a peroral dose of 20 mg/kg; type: functional; conditions: route oral

Sequence of D(3) dopamine receptor (P35462 whole entry): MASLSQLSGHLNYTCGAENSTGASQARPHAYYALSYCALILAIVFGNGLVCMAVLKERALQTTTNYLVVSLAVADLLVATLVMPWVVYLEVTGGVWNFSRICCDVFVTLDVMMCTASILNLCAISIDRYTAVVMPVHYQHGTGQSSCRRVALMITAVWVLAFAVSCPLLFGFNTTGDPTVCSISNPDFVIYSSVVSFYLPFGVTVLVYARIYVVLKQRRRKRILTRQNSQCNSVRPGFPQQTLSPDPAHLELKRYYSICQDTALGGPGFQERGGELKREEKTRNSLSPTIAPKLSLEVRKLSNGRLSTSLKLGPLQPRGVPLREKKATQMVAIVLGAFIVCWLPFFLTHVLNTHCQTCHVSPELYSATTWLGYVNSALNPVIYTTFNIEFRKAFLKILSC
Sequence of Sigma intracellular receptor 2 (Q5U3Y7 whole entry, looked up): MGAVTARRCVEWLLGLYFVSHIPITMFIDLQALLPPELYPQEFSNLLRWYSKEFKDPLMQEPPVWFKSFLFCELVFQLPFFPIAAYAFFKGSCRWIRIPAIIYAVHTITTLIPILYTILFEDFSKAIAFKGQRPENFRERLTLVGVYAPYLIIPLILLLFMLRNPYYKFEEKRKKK
Sequence of D(2) dopamine receptor (P14416 whole entry): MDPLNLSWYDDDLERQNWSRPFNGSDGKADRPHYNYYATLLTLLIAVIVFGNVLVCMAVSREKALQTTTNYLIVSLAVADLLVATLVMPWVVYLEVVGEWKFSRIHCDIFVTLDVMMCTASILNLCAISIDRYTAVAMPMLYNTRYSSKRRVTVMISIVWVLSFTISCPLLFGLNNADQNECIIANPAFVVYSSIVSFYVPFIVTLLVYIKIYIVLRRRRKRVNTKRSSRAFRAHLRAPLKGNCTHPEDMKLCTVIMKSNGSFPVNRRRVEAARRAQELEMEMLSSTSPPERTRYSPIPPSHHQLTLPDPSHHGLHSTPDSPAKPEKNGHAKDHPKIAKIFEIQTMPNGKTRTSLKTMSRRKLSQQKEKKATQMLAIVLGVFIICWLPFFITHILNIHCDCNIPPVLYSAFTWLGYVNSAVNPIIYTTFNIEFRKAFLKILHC

## O=C1COc2cc(CN3CCN(c4ccccc4)CC3)ccc2N1
D(4) dopamine receptor
  Ki: 6.1 nM
D(3) dopamine receptor
  Ki: 10.4 nM

## COc1ccc(N2CCN(Cc3ccc4c(c3)NC(=O)CO4)CC2)cc1
Rattus norvegicus [1]
  Change: 91%
D(3) dopamine receptor
  Ki: > 3030 nM
Rattus norvegicus [2]
  Change: 110%

## COc1ccc(N2CCN(Cc3ccc4c(c3)OCC(=O)N4)CC2)cc1
Rattus norvegicus [3]
  Change: 104%
Rattus norvegicus [4]
  Change: 122%
D(4) dopamine receptor
  Ki: 5 nM
D(2) dopamine receptor
  Ki: > 5880 nM
D(3) dopamine receptor
  Ki: 1790 nM

## Cc1ccc(N2CCN(Cc3ccc4c(c3)OCC(=O)N4)CC2)cc1
Rattus norvegicus [3]
  Change: 140%
Rattus norvegicus [4]
  Change: 133%
D(3) dopamine receptor
  Ki: 208 nM

## Cc1ccc(C2CCN(Cc3ccc4c(c3)OCC(=O)N4)CC2)cc1C
Rattus norvegicus [3]
  Change: 99%
Rattus norvegicus [4]
  Change: 103%
D(4) dopamine receptor
  Ki: 2.6 nM
D(3) dopamine receptor
  Ki: 859 nM

## O=C1COc2cc(CN3CCN(c4ccc(Cl)cc4)CC3)ccc2N1
[5]
  IC50: 500 nM
  Ki: 203 nM
Rattus norvegicus [3]
  Change: 110%
[6]
  IC50: 1100 nM
  Ki: 411 nM
[7]
  IC50: 375 nM
  Ki: 231 nM
[8]
  IC50: 1420 nM
  Ki: 787 nM
[9]
  IC50: 2700 nM
  Ki: 1678 nM
Rattus norvegicus [4]
  Change: 146%
[10]
  IC50: 630 nM
  Ki: 368 nM
[11]
  IC50: 1400 nM
  Ki: 792 nM
[12]
  IC50: 1340 nM
  Ki: 964 nM
D(4) dopamine receptor
  Ki: 4.3 nM
D(2) dopamine receptor
  Ki: 413 nM
D(3) dopamine receptor
  Ki: 679 nM

## COc1ccc(C2CCN(Cc3ccc4c(c3)OCC(=O)N4)CC2)cc1
Rattus norvegicus [13]
  Change: 132%
D(4) dopamine receptor
  Ki: 6.7 nM
D(3) dopamine receptor
  Ki: 428 nM
Rattus norvegicus [14]
  Change: 126%

## Cc1ccc(C2CCN(Cc3ccc4c(c3)NC(=O)CO4)CC2)cc1
D(4) dopamine receptor
  Ki: 2.8 nM
D(3) dopamine receptor
  Ki: > 3030 nM

## O=C1COc2ccc(CN3CCN(c4ccccc4)CC3)cc2N1
D(4) dopamine receptor
  Ki: 18.3 nM
D(3) dopamine receptor
  Ki: 839 nM

## Cc1ccc(N2CCN(Cc3ccc4c(c3)NC(=O)CO4)CC2)cc1C
Rattus norvegicus [3]
  Change: 126%
Rattus norvegicus [4]
  Change: 122%
D(3) dopamine receptor
  Ki: 864 nM

## Cc1ccc(C2CCN(Cc3ccc4c(c3)OCC(=O)N4)CC2)cc1
D(4) dopamine receptor
  Ki: 2.6 nM
D(3) dopamine receptor
  Ki: 232 nM

## O=C1COc2ccc(CN3CCN(c4ccc(Cl)cc4)CC3)cc2N1
D(4) dopamine receptor
  Ki: 62.4 nM
D(3) dopamine receptor
  Ki: > 3030 nM

## Cc1ccc(N2CCN(Cc3ccc4c(c3)NC(=O)CO4)CC2)cc1
Rattus norvegicus [13]
  Change: 89%
D(4) dopamine receptor
  Ki: 4.3 nM
D(3) dopamine receptor
  Ki: 2490 nM
Rattus norvegicus [14]
  Change: 111%

## COc1ccc(C2CCN(Cc3ccc4c(c3)NC(=O)CO4)CC2)cc1
Rattus norvegicus [1]
  Change: 93%
D(3) dopamine receptor
  Ki: > 3030 nM
Rattus norvegicus [2]
  Change: 96%

## Cc1ccc(N2CCN(Cc3ccc4c(c3)OCC(=O)N4)CC2)cc1C
D(3) dopamine receptor
  Ki: 78.5 nM

## Cc1ccc(C2CCN(Cc3ccc4c(c3)NC(=O)CO4)CC2)cc1C
Rattus norvegicus [3]
  Change in DA synthesis: 104%
Rattus norvegicus [4]
  Change in DA synthesis: 128%
D(4) dopamine receptor
  Ki: 1.8 nM
D(3) dopamine receptor
  Ki: > 3030 nM
